pKi: −log10 of the molar value. Where two headings read alike, the source gives them in different places.
What was measured:
WDR5 = WDR5 (Homo sapiens (Human), UniProt P61964); assay: TR-FRET binding assay (displacement of 10mer-Thr-FAM probe from WDR5); conditions: read-out: Ki for Inhibition of WDR5 by TR-FRET assay
[1] = system: MV4:11 human cancer cell lines; assay: Anti-proliferative activity, CellTiter-Glo viability assay, 7 day protocol; assay type: cell-based; conditions: MV4:11 cells, 7 day incubation, read-out: GI50 on cellular proliferation of MV4:11 human cancer cell lines
Procedure: Viability assays are performed by dispensing […] into each well of an opaque 384-well plate and adding compounds at the indicated concentrations in a final volume of 32 μL and a final concentration of DMSO of 0.1% for all samples. After a set incubation period, 7 day protocol, the viability of cells in each well is assessed using the CellTiter-Glo assay (Promega), read on a GloMax 96 Microplane Luminometer (Promega). Serial dilutions of each cell type are included in all assays to generate standard curves and determine assay measurements are taken within the dynamic range of the instrument. GI50 values are calculated based on three biological replicates, each with three technical replicates. Data are expressed as mean plus/minus S.E.M.

[2] = TR-FRET, 10mer-Thr-FAM probe, WDR5-His tag 2 nM, pH 7.0

Molecule | GI50 ([1]; Homo sapiens, MV4-11, 168 h) [nM] | further results
3-(1-Ethyl-3-(trifluoromethyl)-1H-pyrazol-4-yl)-5-((2-iminooxazolidin-3-yl)methyl)-N-(1-methyl-6-oxo-1,6-dihydropyridin-3-yl)methyl)benzamide [Example 293] |  | pKi (WDR5): 9.27; GI50 [1]: 480 nM
COc1cc(OC)cc([C@@H](NC(=O)c2cc(Cn3ccoc3=N)cc(-c3ccc(F)cc3Cl)c2)C2CC2)c1 (stereo in doubt) [Example 249, 2′-Chloro-N-(cyclopropyl(3,5-dimethoxyphenyl)methyl)-4′-fluoro-5-((2-iminooxazol-3(2H)-yl)methyl)-[1,1′-biphenyl]-3-carboxamide] | 370 | pKi (WDR5; [2]): > 10.00
Cc1nc(F)ccc1-c1cc(Cn2ccn(C)c2=N)cc(C(=O)NCc2ccc(Cl)c(Cl)c2)c1 [Example 1, N-(3,4-Dichlorobenzyl)-3-(6-fluoro-2-methylpyridin-3-yl)-5-((2-imino-3-methyl-2,3-dihydro-1H-imidazol-1-yl)methyl)benzamide] | 300 | pKi (WDR5; [2]): > 10.00
Cc1ccnc(C(NC(=O)c2cc(Cn3ccn(C)c3=N)cc(-c3ccc(F)nc3C)c2)C2CC2)c1 (stereo not shown) [Example 3, N-(Cyclopropyl(4-methylpyridin-2-yl)methyl)-3-(6-fluoro-2-methylpyridin-3-yl)-5-((2-imino-3-methyl-2,3-dihydro-1H-imidazol-1-yl)methyl)benzamide] | 550 | pKi (WDR5; [2]): > 10.00
COc1ccnc(CNC(=O)c2cc(Cn3ccn(C)c3=N)cc(-c3ccncc3C)c2)c1 [Example 8, 3-((2-Imino-3-methyl-2,3-dihydro-1H-imidazol-1-yl)methyl)-N-((4-methoxypyridin-2-yl)methyl)-5-(3-methylpyridin-4-yl)benzamide] | 170 | pKi (WDR5; [2]): 9.57
Cc1ccnc(C(NC(=O)c2cc(Cn3ccn(C)c3=N)cc(-c3ccc(F)cc3C)c2)C2CC2)c1 (stereo not shown) [Example 9, N-(Cyclopropyl(4-methylpyridin-2-yl)methyl)-4′-fluoro-5-((2-imino-3-methyl-2,3-dihydro-1H-imidazol-1-yl)methyl)-2′-methyl-[1,1′-biphenyl]-3-carboxamide] | 220 | pKi (WDR5; [2]): 9.82
Cc1cc([C@@H](NC(=O)c2cc(Cn3ccn(C)c3=N)cc(-c3ccc(F)cc3C(F)(F)F)c2F)C2CC2)ccc1F [Example 109] | < 100 | 
Cc1cc([C@@H](NC(=O)c2cc(Cn3ccn(C)c3=N)cc(OCC3CC3)c2)C2CC2)ccc1F [Example 175] | 320 | 
COc1cc(CNC(=O)c2cc(Cn3ccoc3=N)cc(-c3cccnc3C(F)(F)F)c2)cc(OC)c1 [Example 244, N-(3,5-Dimethoxybenzyl)-3-((2-iminooxazol-3(2H)-yl)methyl)-5-(2-(trifluoromethyl)pyridin-3-yl)benzamide] | 300 | 
Cc1cc([C@@H](NC(=O)c2cc(CN3CCOC3=N)cc(-c3cccnc3C(F)(F)F)c2)C2CC2)ccc1F [Example 253, (S)-(Cyclopropyl(4-fluoro-3-methylphenyl)methyl)-3-((2-iminooxazolidin-3-yl)methyl)-5-(2-(trifluoromethyl)pyridin-3-yl)benzamide] | < 100 | 
CCn1cc(-c2cc(CN3CCOC3=N)cc(C(=O)N[C@H](c3ccc(F)c(C)c3)C3CC3)c2)c(C(F)(F)F)n1 [Example 276, (S)—N-(Cyclopropyl(4-fluoro-3-methylphenyl)methyl)-3-(1-ethyl-3-(trifluoromethyl) H-pyrazol-4-yl)-5-((2-iminooxazolidin-3-yl)methyl)benzamide] | < 100 | 
CCn1cc(-c2cc(Cn3ccoc3=N)cc(C(=O)NCc3ccc(=O)n(C)c3)c2)c(C(F)(F)F)n1 [Example 292, 3-(1-Ethyl-3-(trifluoromethyl)-1H-pyrazol-4-yl)-5-((2-iminooxazol-3(2H)-yl)methyl)-N-((1-methyl-6-oxo-1,6-dihydropyridin-3-yl)methyl)benzamide] | 710 | 
COc1cc(CNC(=O)c2cc(Cn3ccsc3=N)cc(-c3ccc(F)cc3C)c2)cc(OC)c1 [Example 307, N-(3,5-Dimethoxybenzyl)-4′-fluoro-5-((2-iminothiazol-3(2H)-yl)methyl)-2′-methyl-[1,1′-biphenyl]-3-carboxamide] | 910 | 
Cc1nc(F)ccc1-c1cc(CN2CCCC2=N)cc(C(=O)NCc2ccc(Cl)c(Cl)c2)c1 [Example 331, N-(3,4-Dichlorobenzyl)-3-(6-fluoro-2-methylpyridin-3-yl)-5-((2-iminopyrrolidin-1-yl)methyl)benzamide] | 950 | 
Cc1cc(-c2cc(CN3CCCC3=N)cc(C(=O)NCc3ccc(Cl)c(Cl)c3)c2)c(C)cc1F [Example 332, N-(3,4-Dichlorobenzyl)-4′-fluoro-5-((2-iminopyrrolidin-1-yl)methyl)-2′,5′-dimethyl-[1,1′-biphenyl]-3-carboxamide] | 1400 | 

The next lines start with results.

GI50 ([1]; Homo sapiens, MV4-11, 168 h) [nM] | Molecule | further results
1200 | Cc1ccnc(C(NC(=O)c2cc(Cn3ccn(C)c3=N)cc(-c3cccnc3C(F)(F)F)c2)C2CC2)c1 (stereo not shown) [Example 77, N-(Cyclopropyl(4-methylpyridin-2-yl)methyl)-3-((2-imino-3-methyl-2,3-dihydro-1H-imidazol-1-yl)methyl)-5-(2-(trifluoromethyl)pyridin-3-yl)benzamide] | 
250 | COc1ccnc([C@@H](NC(=O)c2cc(Cn3ccn(C)c3=N)cc(-c3ccc(F)cc3C)c2)C2CC2)c1 [Example 97] | 
2160 | Cc1cc([C@@H](NC(=O)c2cc(Cn3ccn(C)c3=N)cc(-c3ccnn3C(C)C)c2)C2CC2)ccc1F [Example 102, (S)—N-(Cyclopropyl(4-fluoro-3-methylphenyl)methyl)-3-((2-imino-3-methyl-2,3-dihydro-1H-imidazol-1-yl)methyl)-5-(1-isopropyl-1H-pyrazol-5-yl)benzamide] | 
640 | Cc1cc([C@H](C)NC(=O)c2cc(Cn3ccoc3=N)cc(-c3ccc(F)cc3C)c2)ccc1F [Example 230, (S)-4′-Fluoro-N-(1-(4-fluoro-3-methylphenyl)ethyl)-5-((2-iminooxazol-3(2H)-yl)methyl)-2′-methyl-[1,1′-biphenyl]-3-carboxamide] | 
870 | Cc1cc([C@H](NC(=O)c2cc(Cn3ccoc3=N)cc(-c3ccc(F)cc3C)c2)C(F)(F)F)ccc1F [Example 231, (S)-4′-Fluoro-5-((2-iminooxazol-3(2H)-yl)methyl)-2′-methyl-N-(2,2,2-trifluoro-1-(4-fluoro-3-methylphenyl)ethyl)-[1,1′-biphenyl]-3-carboxamide] | 
210 | Cc1cc([C@@H](NC(=O)c2cc(Cn3ccoc3=N)cc(-c3ccc(F)cc3C)c2)C2CC2)ccc1F [Example 232, (S)—N-(Cyclopropyl(4-fluoro-3-methylphenyl)methyl)-4′-fluoro-5-((2-iminooxazol-3(2H)-yl)methyl)-2′-methyl-[1,1′-biphenyl]-3-carboxamide] | 
1100 | Cc1cc(F)ccc1-c1cc(Cn2ccoc2=N)cc(C(=O)N[C@@H](C)c2ccc(F)c(C(F)(F)F)c2)c1 [Example 233, (S)-4′-Fluoro-N-(1-(4-fluoro-3-(trifluoromethyl)phenyl)ethyl)-5-((2-iminooxazol-3(2H)-yl)methyl)-2′-methyl-[1,1′-biphenyl]-3-carboxamide] | 
870 | Cc1cc([C@H](C)NC(=O)c2cc(Cn3ccoc3=N)cc(-c3ccc(F)cc3C)c2)ccc1Cl [Example 234, (S)—N-(1-(4-Chloro-3-methylphenyl)ethyl)-4′-fluoro-5-((2-iminooxazol-3(2H)-yl)methyl)-2′-methyl-[1,1′-biphenyl]-3-carboxamide] | 
5300 | Cc1ccnc(C(NC(=O)c2cc(Cn3ccoc3=N)cc(-c3ncc(F)cc3C)c2)C2CC2)c1 (stereo not shown) [Example 239, N-(Cyclopropyl(4-methylpyridin-2-yl)methyl)-3-(5-fluoro-3-methylpyridin-2-yl)-5-((2-iminooxazol-3(2H)-yl)methyl)benzamide] | 
12000 | Cc1cc([C@@H](NC(=O)c2cc(Cn3ccoc3=N)cc(-c3ncc(F)cc3C(F)(F)F)c2)C2CC2)ccc1F [Example 241, (S)—N-(Cyclopropyl(4-fluoro-3-methylphenyl)methyl)-3-(5-fluoro-3-(trifluoromethyl)pyridin-2-yl)-5-((2-iminooxazol-3(2H)-yl)methyl)benzamide] | 
120 | Cc1cc([C@@H](NC(=O)c2cc(Cn3ccoc3=N)cc(-c3ccc(F)cc3OC(F)F)c2)C2CC2)ccc1F [Example 242, (S)—N-(Cyclopropyl(4-fluoro-3-methylphenyl)methyl)-2′-(difluoromethoxy)-4′-fluoro-5-((2-iminooxazol-3(2 h)-yl)methyl)-[1,1′-biphenyl]-3-carboxamide] | 
< 100 | Cc1cc([C@@H](NC(=O)c2cc(Cn3ccoc3=N)cc(-c3cccnc3C(F)(F)F)c2)C2CC2)ccc1F [Example 243, (S)—N-(Cyclopropyl(4-fluoro-3-methylphenyl)methyl)-3-((2-iminooxazol-3(2H)-yl)methyl)-5-(2-(trifluoromethyl)pyridin-3-yl)benzamide] | 
180 | COc1cc(OC)cc(C(NC(=O)c2cc(Cn3ccoc3=N)cc(-c3cccnc3C(F)(F)F)c2)C2CC2)c1 (stereo not shown) [Example 245, N-(Cyclopropyl(3,5-dimethoxyphenyl)methyl)-3-((2-iminooxazol-3(2H)-yl)methyl)-5-(2-(trifluoromethyl)pyridin-3-yl)benzamide] | 

From US10844044B2 (Vanderbilt University, priority 2018, dated 2020)
